Data taken from US20230225315A1, “METHODS OF DELIVERING PLANT VIRUS-BASED NANOPESTICIDES” (priority 2019, published 2023).

Assays:
[1] = Soil column mobility (soil transport behaviour); type: physicochemical
Method: […] […] (pH 7.0) to the centre of the soil surface at the top of the column We added 10 mM KP buffer (pH 7.0) at a constant flow rate of 1.5 ml min^−1 and collected the eluent in 500-μL fractions. Up to 150 fractions were collected in each trial (two trials for each formulation and depth) and stored at 4° C.
The elution fractions containing TMGMV, PhMV or CPMV were analysed by SDS-PAGE to determine the mass of nanoparticles recovered in each elution fraction. […] TMGMV and PhMV were analysed on 4-12% NuPage polyacrylamide SDS gels cast according to the Surecast Handcast protocol (Invitrogen). […]
All nanoparticles were imaged in triplicate and the images were analysed using ImageJ The area under the curve (AUC) of the standards was used to create a linear standard curve relating the AUC of the elution samples to the total mass of nanoparticles present in the corresponding elution fraction. […]
To establish the soil transport behaviour of each formulation, we conducted mobility studies using a cylindrical column of diameter 28 mm packed with topsoil at a constant bulk density of 0.32 g cm^−3. […] Fractions containing virus-based formulations were analysed by SDS-PAGE to determine the mass of recovered nanoparticles. […]

[2] = tested on: nematode; details: concentration to be achieved in the rhizosphere; cited from earlier work
[3] = cited from earlier work

Row | Substance | soil depth penetrated by free Cy5 ([1]; 500 μg free Cy5, soil column 10 mm diameter) | mass of injected Cy5 recovered ([1]; free Cy5, column with a soil depth of 2 cm) | IC50 value [2] | solubility in water [3]
1 | Cyanine 5 [Cy5] | ≤ 4 cm | About 40% |  | 
2 | abamectin |  |  | 1.309×10^−4 mg cm^−3 | insoluble
